#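 Assay format: 96-well plates, 48-hour exposure. TGI marks complete inhibition of growth.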
# Legend:
# Assay in all cases: DTP human tumour cell line panel, 48 h
# HCT-15 colon = system: HCT-15 colon
# CAKI-1 renal = system: CAKI-1 renal
# SF-268 CNS = system: SF-268 CNS
# LOX IMVI melanoma = system: LOX IMVI melanoma
# PC-3 prostate = system: PC-3 prostate
# MDA-MB-231 breast = system: MDA-MB-231 breast
# NCI-H23 lung = system: NCI-H23 lung
# SNB-75 CNS = system: SNB-75 CNS
# COLO 205 colon = system: COLO 205 colon
# DU-145 prostate = system: DU-145 prostate
# HL-60(TB) leukemia = system: HL-60(TB) leukemia
# CCRF-CEM leukemia = system: CCRF-CEM leukemia
# MDA-N = system: MDA-N
# OVCAR-3 ovarian = system: OVCAR-3 ovarian
# U251 CNS = system: U251 CNS
# IGROV1 ovarian = system: IGROV1 ovarian
# BT-549 breast = system: BT-549 breast
# SF-295 CNS = system: SF-295 CNS
# NCI-H522 lung = system: NCI-H522 lung
# 786-0 renal = system: 786-0 renal
# SK-MEL-28 melanoma = system: SK-MEL-28 melanoma
# KM12 colon = system: KM12 colon
# RPMI-8226 leukemia = system: RPMI-8226 leukemia
# HT29 colon = system: HT29 colon
# HCT-116 colon = system: HCT-116 colon
# RXF 393 renal = system: RXF 393 renal
# UACC-62 melanoma = system: UACC-62 melanoma
# HOP-62 NSCLC = system: HOP-62 NSCLC
# ACHN renal = system: ACHN renal
# MCF7 breast = system: MCF7 breast
# UACC-257 melanoma = system: UACC-257 melanoma
# SW-620 colon = system: SW-620 colon
# OVCAR-4 ovarian = system: OVCAR-4 ovarian
# SK-OV-3 ovarian = system: SK-OV-3 ovarian
# OVCAR-8 ovarian = system: OVCAR-8 ovarian
# HS 578T breast = system: HS 578T breast
# TK-10 renal = system: TK-10 renal
# HOP-92 NSCLC = system: HOP-92 NSCLC
# SK-MEL-5 melanoma = system: SK-MEL-5 melanoma
# SNB-19 CNS = system: SNB-19 CNS
# A549 NSCLC = system: A549 NSCLC
# NCI-H226 lung = system: NCI-H226 lung
# SK-MEL-2 melanoma = system: SK-MEL-2 melanoma
# MALME-3M melanoma = system: MALME-3M melanoma
# SF-539 CNS = system: SF-539 CNS
# K-562 leukemia = system: K-562 leukemia
# MDA-MB-435 = system: MDA-MB-435
# M14 melanoma = system: M14 melanoma
# NCI/ADR-RES ovarian = system: NCI/ADR-RES ovarian
# SN12C renal = system: SN12C renal
# SR leukemia = system: SR leukemia
# HCC-2998 colon = system: HCC-2998 colon
# T-47D breast = system: T-47D breast
# NCI-H460 lung = system: NCI-H460 lung
# MOLT-4 leukemia = system: MOLT-4 leukemia
# OVCAR-5 ovarian = system: OVCAR-5 ovarian
# EKVX NSCLC = system: EKVX NSCLC
# A498 renal = system: A498 renal
# UO-31 renal = system: UO-31 renal
structure (smiles),measurement,setting,value
Cc1nn(C(=O)c2ccc(Cl)cc2)c2c1C(c1ccc([N+](=O)[O-])cc1)SC(N)=N2 (centres undefined),TGI,HCT-15 colon,> 10 µM
same,TGI,CAKI-1 renal,> 10 µM
same,TGI,SF-268 CNS,> 10 µM
same,TGI,LOX IMVI melanoma,> 10 µM
same,TGI,PC-3 prostate,> 10 µM
same,TGI,MDA-MB-231 breast,> 10 µM
same,TGI,NCI-H23 lung,> 10 µM
same,TGI,SNB-75 CNS,> 10 µM
same,TGI,COLO 205 colon,> 10 µM
same,TGI,DU-145 prostate,> 10 µM
same,TGI,HL-60(TB) leukemia,> 10 µM
same,TGI,CCRF-CEM leukemia,> 10 µM
same,TGI,MDA-N,> 10 µM
same,TGI,OVCAR-3 ovarian,> 10 µM
same,TGI,U251 CNS,> 10 µM
same,TGI,IGROV1 ovarian,> 10 µM
same,TGI,BT-549 breast,> 10 µM
same,TGI,SF-295 CNS,> 10 µM
same,TGI,NCI-H522 lung,> 10 µM
same,TGI,786-0 renal,> 10 µM
same,TGI,SK-MEL-28 melanoma,> 10 µM
same,TGI,KM12 colon,> 10 µM
same,TGI,RPMI-8226 leukemia,> 10 µM
same,TGI,HT29 colon,> 10 µM
same,TGI,HCT-116 colon,> 10 µM
same,TGI,RXF 393 renal,> 10 µM
same,TGI,UACC-62 melanoma,> 10 µM
same,TGI,HOP-62 NSCLC,> 10 µM
same,TGI,ACHN renal,> 10 µM
same,TGI,MCF7 breast,> 10 µM
same,TGI,UACC-257 melanoma,> 10 µM
same,TGI,SW-620 colon,> 10 µM
same,TGI,OVCAR-4 ovarian,> 10 µM
same,TGI,SK-OV-3 ovarian,> 10 µM
same,TGI,OVCAR-8 ovarian,> 10 µM
same,TGI,HS 578T breast,> 10 µM
same,TGI,TK-10 renal,> 10 µM
same,TGI,HOP-92 NSCLC,> 10 µM
same,TGI,SK-MEL-5 melanoma,> 10 µM
same,TGI,SNB-19 CNS,> 10 µM
same,TGI,A549 NSCLC,> 10 µM
same,TGI,NCI-H226 lung,> 10 µM
same,TGI,SK-MEL-2 melanoma,> 10 µM
same,TGI,MALME-3M melanoma,> 10 µM
same,TGI,SF-539 CNS,> 10 µM
same,TGI,K-562 leukemia,> 10 µM
same,TGI,MDA-MB-435,> 10 µM
same,TGI,M14 melanoma,> 10 µM
same,TGI,NCI/ADR-RES ovarian,> 10 µM
same,TGI,SN12C renal,> 10 µM
same,TGI,SR leukemia,> 10 µM
same,TGI,HCC-2998 colon,> 10 µM
same,TGI,T-47D breast,> 10 µM
same,TGI,NCI-H460 lung,> 10 µM
same,TGI,MOLT-4 leukemia,> 10 µM
same,TGI,OVCAR-5 ovarian,> 10 µM
same,TGI,EKVX NSCLC,> 10 µM
c1ccc(C2SCC3=Nc4ccccc4CN32)cc1 (centres undefined),TGI,HCT-15 colon,> 100 µM
same,TGI,CAKI-1 renal,> 100 µM
same,TGI,SF-268 CNS,> 100 µM
same,TGI,LOX IMVI melanoma,> 100 µM
same,TGI,PC-3 prostate,> 100 µM
same,TGI,MDA-MB-231 breast,> 100 µM
same,TGI,NCI-H23 lung,62.3 µM
same,TGI,SNB-75 CNS,> 100 µM
same,TGI,COLO 205 colon,> 100 µM
same,TGI,A498 renal,> 100 µM
same,TGI,DU-145 prostate,> 100 µM
same,TGI,HL-60(TB) leukemia,89.9 µM
same,TGI,CCRF-CEM leukemia,> 100 µM
same,TGI,MDA-N,> 100 µM
same,TGI,OVCAR-3 ovarian,22.5 µM
same,TGI,U251 CNS,> 100 µM
same,TGI,BT-549 breast,> 100 µM
same,TGI,SF-295 CNS,70.8 µM
same,TGI,786-0 renal,> 100 µM
same,TGI,SK-MEL-28 melanoma,> 100 µM
same,TGI,KM12 colon,> 100 µM
same,TGI,RPMI-8226 leukemia,> 100 µM
same,TGI,HT29 colon,50.7 µM
same,TGI,HCT-116 colon,51.9 µM
same,TGI,RXF 393 renal,38.9 µM
same,TGI,UACC-62 melanoma,> 100 µM
same,TGI,HOP-62 NSCLC,> 100 µM
same,TGI,MCF7 breast,> 100 µM
same,TGI,UACC-257 melanoma,> 100 µM
same,TGI,SW-620 colon,> 100 µM
same,TGI,OVCAR-4 ovarian,> 100 µM
same,TGI,SK-OV-3 ovarian,> 100 µM
same,TGI,OVCAR-8 ovarian,57.3 µM
same,TGI,HS 578T breast,> 100 µM
same,TGI,TK-10 renal,> 100 µM
same,TGI,HOP-92 NSCLC,> 100 µM
same,TGI,SK-MEL-5 melanoma,32.2 µM
same,TGI,SNB-19 CNS,57.8 µM
same,TGI,A549 NSCLC,> 100 µM
same,TGI,SF-539 CNS,99.2 µM
same,TGI,K-562 leukemia,> 100 µM
same,TGI,UO-31 renal,> 100 µM
same,TGI,MDA-MB-435,> 100 µM
same,TGI,M14 melanoma,> 100 µM
same,TGI,NCI/ADR-RES ovarian,48 µM
same,TGI,SN12C renal,> 100 µM
same,TGI,SR leukemia,> 100 µM
same,TGI,HCC-2998 colon,> 100 µM
same,TGI,T-47D breast,> 100 µM
same,TGI,NCI-H460 lung,> 100 µM
same,TGI,MOLT-4 leukemia,> 100 µM
same,TGI,OVCAR-5 ovarian,> 100 µM

# Source: PubChem BioAssay (NCI)
